pIC50, pKi: −log10 of the molar value.
What was measured:
[1] = test system: S. typhimurium sialidase; settings: cited from earlier work
[2] = test system: influenza virus sialidase; settings: cited from earlier work; for pIC50: read-out: IC50 for influenza virus sialidase inhibition
[3] = test system: S. typhimurium sialidase; settings: substrate of S. typhimurium sialidase; cited from earlier work
[4] = target: T1, bacterial sialidase (Micromonospora viridifaciens) (Micromonospora viridifaciens, UniProt Q02834); assay: Inhibition of bacterial sialidase (Micromonospora viridifaciens), fluorescence assay with MUN; type: biochemical; settings: 10 mM inhibitor, 0.1 mM MUN, pH 6.0, 37° C., 15 minutes
T1 sequence (Q02834 38-647): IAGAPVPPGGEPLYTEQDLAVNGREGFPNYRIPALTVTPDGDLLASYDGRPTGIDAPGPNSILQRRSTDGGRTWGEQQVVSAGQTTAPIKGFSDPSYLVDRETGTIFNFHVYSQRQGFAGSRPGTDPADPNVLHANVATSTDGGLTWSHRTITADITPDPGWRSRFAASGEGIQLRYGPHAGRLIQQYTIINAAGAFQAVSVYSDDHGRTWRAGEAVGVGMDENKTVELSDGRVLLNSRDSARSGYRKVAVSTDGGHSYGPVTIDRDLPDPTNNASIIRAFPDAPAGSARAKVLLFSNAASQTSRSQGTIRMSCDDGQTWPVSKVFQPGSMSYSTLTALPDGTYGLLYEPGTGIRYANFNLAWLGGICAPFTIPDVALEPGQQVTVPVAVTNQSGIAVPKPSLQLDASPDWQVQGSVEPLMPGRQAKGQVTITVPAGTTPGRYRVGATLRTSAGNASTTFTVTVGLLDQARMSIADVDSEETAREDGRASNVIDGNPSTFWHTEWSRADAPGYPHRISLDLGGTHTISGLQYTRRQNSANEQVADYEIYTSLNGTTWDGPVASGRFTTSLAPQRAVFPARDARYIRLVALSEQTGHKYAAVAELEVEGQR

With `CC(=O)N[C@H]1[C@H]([C@H](O)[C@H](O)CO)OC(O)(C(=O)O)C[C@@H]1O` (stereo partly shown) [Neu5Ac] as the compound, how does the “inhibition by high levels of the cleavage product” value ([1]; high levels, compared to influenza virus sialidase) read?
The value was “do not inhibit the bacterial sialidase”.

What does the source list for `CC(=O)N[C@H]1[C@H]([C@H](O)[C@H](O)CO)OC(C(=O)O)=C[C@@H]1O` [Neu5Ac2en]?
pKi [1]: 3.42; pIC50 [2]: ~2.00

Which “inhibition selectivity for influenza virus sialidase versus bacterial sialidases” value ([2]; influenza virus versus bacterial sialidases) does the source give for `CC(=O)N[C@H]1[C@H]([C@H](O)[C@H](O)CO)OC(C(=O)O)=C[C@@H]1N=C(N)N` [4-guanidino-Neu5Ac2en] here?
Its value is “inhibition selectivity of 4-guanidino-Neu5Ac2en for influenza virus sialidase versus bacterial sialidases”.

Which Km [3] does the source give for `CC(=O)NC1C(O)CC(Oc2ccc3c(C)cc(=O)oc3c2)(C(=O)O)OC1C(O)C(O)CO` [MUN, 4-methylumbelliferyl-a-D-N-acetylneuraminic acid] here?
Its Km is 250 µM.

And the turnover number [3]?
Its turnover number is 2,700 sec^-1.

With `CC(=O)Nc1c(O)cc(C(=O)O)cc1[N+](=O)[O-]` [HNBA, 4-acetylamino-3-hydroxyl-5-nitro-benzoic acid] as the compound, how does the “inhibition of type A and B influenza virus sialidase (in words)” value ([2]; both type A and B) read?
Its value is “potent inhibitors”.

What about the “inhibition of influenza virus sialidase (in words)” value [2] of the same compound?
Its value is “millimolar”.

What about the pIC50 [2] of the same compound?
The pIC50 was ~2.00.

And the “inhibition of bacterial sialidase (in words)” value [4]?
Its value is “inhibited bacterial sialidase with efficiencies similar to Neu5Ac2en”.

Reference: US5714509A, “Inhibitors of bacterial sialidase and methods of making and using the same” (The University of Alabama, priority 1995, dated 1998)
